≈ marks a conversion by molar mass, not a printed value.
Tests used:
[1] = Displacement of [35S]TBPS from GABA-A receptor in Sprague-Dawley rat cerebral cortex cell membranes after 90 mins in presence of GABA by liquid scintillation counting
[2] = target: T1, GABA-A receptor; alpha-1/beta-2/gamma-2 (Homo sapiens, UniProt P14867+P18507+P47870); test: (§1) Positive allosteric modulation of GABAA receptor alpha1beta2gamma2 (unknown origin) expressed in mouse LTK cells assessed as potentiation of GABA-mediated increase in channel current under holding potential at -80 mV preincubated for 30 secs followed by GABA stimulation for 2 secs by automated patch clamp assay; format: cell-based
T1 sequence (P14867 whole entry): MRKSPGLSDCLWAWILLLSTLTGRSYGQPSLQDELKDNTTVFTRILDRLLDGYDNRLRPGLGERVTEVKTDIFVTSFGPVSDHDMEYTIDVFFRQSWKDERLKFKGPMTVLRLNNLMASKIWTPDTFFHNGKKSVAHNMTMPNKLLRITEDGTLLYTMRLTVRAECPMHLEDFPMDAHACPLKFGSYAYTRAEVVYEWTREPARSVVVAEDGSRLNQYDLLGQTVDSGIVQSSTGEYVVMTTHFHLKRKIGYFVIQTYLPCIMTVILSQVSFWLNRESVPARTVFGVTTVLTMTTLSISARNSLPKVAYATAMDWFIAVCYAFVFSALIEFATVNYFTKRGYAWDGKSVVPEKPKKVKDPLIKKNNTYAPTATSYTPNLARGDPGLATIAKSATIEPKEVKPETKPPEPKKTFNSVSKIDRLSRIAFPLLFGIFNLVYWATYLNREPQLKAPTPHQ
T1 sequence (P47870 whole entry): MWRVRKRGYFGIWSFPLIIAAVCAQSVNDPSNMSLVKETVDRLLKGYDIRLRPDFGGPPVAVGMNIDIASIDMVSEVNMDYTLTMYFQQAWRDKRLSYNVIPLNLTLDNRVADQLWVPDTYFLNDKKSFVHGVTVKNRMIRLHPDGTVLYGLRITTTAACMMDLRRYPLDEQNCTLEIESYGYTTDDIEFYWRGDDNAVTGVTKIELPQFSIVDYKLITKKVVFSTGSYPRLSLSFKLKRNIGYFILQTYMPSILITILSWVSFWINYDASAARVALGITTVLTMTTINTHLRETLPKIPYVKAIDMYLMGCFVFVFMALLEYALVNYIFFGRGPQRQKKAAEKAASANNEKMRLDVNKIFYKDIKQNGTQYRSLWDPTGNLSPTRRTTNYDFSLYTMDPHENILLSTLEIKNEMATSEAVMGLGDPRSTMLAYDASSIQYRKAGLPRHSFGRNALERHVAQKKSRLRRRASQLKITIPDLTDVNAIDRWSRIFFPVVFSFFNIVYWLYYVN
T1 sequence (P18507 whole entry): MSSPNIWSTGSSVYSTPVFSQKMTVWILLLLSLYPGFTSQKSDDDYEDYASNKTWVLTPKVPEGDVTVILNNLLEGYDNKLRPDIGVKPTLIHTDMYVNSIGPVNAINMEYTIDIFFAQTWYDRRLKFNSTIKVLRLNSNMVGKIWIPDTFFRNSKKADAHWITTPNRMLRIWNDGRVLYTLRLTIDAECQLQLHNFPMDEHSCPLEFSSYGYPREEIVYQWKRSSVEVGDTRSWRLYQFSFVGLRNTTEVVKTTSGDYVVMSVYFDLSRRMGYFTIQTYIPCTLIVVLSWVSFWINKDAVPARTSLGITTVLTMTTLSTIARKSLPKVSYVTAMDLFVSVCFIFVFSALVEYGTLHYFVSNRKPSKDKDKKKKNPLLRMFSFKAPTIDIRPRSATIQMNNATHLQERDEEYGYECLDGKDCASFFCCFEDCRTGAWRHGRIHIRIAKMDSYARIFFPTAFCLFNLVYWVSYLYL

[3] = target: GABA-A receptor; alpha-1/beta-2/gamma-2 (Homo sapiens) (UniProt P14867+P47870+P18507); test: as §1, with “mV at 0.01 to 10 uM” for “mV”, “assay relative to GABA” for “assay”; format: cell-based
[4] = target: Gamma-aminobutyric acid receptor subunit alpha-4/beta3/delta (Homo sapiens, UniProt O14764+P28472+P48169); test: as §1, with “alpha4beta3delta” for “alpha1beta2gamma2”, “CHO” for “mouse LTK”, “manual” for “automated”; format: cell-based
[5] = target: GABA-A receptor alpha-4/beta-3/delta (Homo sapiens, UniProt P28472+P48169+); test: as §1, with “alpha4beta3delta” for “alpha1beta2gamma2”, “CHO” for “mouse LTK”, “mV at 0.01 to 10 uM” for “mV”, “manual” for “automated”, “assay relative to GABA” for “assay”; format: cell-based; conditions: 2 s
[6] = Thermodynamic aqueous solubility of compound at 10 uM sonicated for 1 min followed by incubation for 1 hr by HPLC-MS/MS; format: physicochemical; conditions: buffer; read-out: Therm_solubility
[7] = Clearance in human hepatic microsomes at 10 uM preincubated for 5 mins followed by NADPH addition measured over 60 mins by HPLC-MS/MS analysis; format: ADME, Microsome; conditions: liver microsomes
[8] = Clearance in rat hepatic microsomes at 10 uM preincubated for 5 mins followed by NADPH addition measured over 60 mins by HPLC-MS/MS analysis; format: ADME, Microsome; conditions: liver microsomes
[9] = Clearance in mouse hepatic microsomes at 10 uM preincubated for 5 mins followed by NADPH addition measured over 60 mins by HPLC-MS/MS analysis; format: ADME, Microsome; conditions: liver microsomes
[10] = Clearance in CD1 mouse at 5 mg/kg, iv or 20 mg/kg, po measured up to 8 hrs post dose by LC/MS-MS analysis; format: ADME, organism-based; conditions: in vivo
[11] = Oral bioavailability in Sprague-Dawley rat at 20 mg/kg measured up to 8 hrs post dose by LC/MS-MS analysis; format: ADME, organism-based; conditions: in vivo
[12] = Oral bioavailability in CD1 mouse at 20 mg/kg measured up to 8 hrs post dose by LC/MS-MS analysis; format: ADME, organism-based; conditions: in vivo
[13] = Ratio of drug level in Sprague-Dawley rat brain to plasma at 5 mg/kg, iv measured at 30 mins post dose by LC/MS-MS analysis; format: ADME, organism-based; conditions: read-out: BPR
[14] = Ratio of drug level in CD1 mouse brain to plasma at 5 mg/kg, iv measured at 30 mins post dose by LC/MS-MS analysis; format: ADME, organism-based; conditions: read-out: BPR
[15] = Lipophilicity, logD of compound at 20 uM at pH 7.4 by HPLC/MS-MS analysis; format: physicochemical; conditions: buffer
[16] = Clearance in Sprague-Dawley rat at 5 mg/kg, iv or 20 mg/kg, po measured up to 8 hrs post dose by LC/MS-MS analysis; format: ADME, organism-based; conditions: in vivo

Sequence of Gamma-aminobutyric acid receptor subunit alpha-4/beta3/delta (P28472 whole entry): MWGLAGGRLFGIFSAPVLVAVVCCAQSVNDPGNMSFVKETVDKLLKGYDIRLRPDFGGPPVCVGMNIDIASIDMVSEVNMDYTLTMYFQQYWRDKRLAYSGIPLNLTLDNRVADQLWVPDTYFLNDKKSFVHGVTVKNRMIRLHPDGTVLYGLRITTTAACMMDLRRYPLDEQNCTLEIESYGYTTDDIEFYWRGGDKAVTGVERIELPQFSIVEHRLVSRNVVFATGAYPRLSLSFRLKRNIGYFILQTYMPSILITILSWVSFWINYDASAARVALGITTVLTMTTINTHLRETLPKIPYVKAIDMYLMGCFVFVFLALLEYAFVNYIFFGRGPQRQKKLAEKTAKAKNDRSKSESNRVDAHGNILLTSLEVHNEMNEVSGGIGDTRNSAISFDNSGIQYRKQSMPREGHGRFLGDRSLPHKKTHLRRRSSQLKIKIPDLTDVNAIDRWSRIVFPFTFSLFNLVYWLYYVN
Sequence of Gamma-aminobutyric acid receptor subunit alpha-4/beta3/delta (P48169 whole entry): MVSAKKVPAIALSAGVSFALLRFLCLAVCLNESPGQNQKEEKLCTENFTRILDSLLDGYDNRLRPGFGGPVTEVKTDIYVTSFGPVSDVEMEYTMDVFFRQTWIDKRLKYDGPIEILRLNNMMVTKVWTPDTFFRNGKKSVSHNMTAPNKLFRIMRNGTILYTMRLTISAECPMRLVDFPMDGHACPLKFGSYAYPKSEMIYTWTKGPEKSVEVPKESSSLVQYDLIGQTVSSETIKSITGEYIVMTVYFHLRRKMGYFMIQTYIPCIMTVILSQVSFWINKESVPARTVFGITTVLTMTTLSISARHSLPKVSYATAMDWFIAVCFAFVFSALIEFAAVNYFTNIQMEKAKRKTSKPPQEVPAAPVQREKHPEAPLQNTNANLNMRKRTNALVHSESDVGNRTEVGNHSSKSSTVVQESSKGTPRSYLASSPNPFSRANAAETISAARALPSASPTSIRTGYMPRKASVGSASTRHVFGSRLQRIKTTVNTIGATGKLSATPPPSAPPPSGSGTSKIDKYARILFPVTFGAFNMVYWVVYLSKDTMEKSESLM
Sequence of Gamma-aminobutyric acid receptor subunit alpha-4/beta3/delta (O14764 whole entry): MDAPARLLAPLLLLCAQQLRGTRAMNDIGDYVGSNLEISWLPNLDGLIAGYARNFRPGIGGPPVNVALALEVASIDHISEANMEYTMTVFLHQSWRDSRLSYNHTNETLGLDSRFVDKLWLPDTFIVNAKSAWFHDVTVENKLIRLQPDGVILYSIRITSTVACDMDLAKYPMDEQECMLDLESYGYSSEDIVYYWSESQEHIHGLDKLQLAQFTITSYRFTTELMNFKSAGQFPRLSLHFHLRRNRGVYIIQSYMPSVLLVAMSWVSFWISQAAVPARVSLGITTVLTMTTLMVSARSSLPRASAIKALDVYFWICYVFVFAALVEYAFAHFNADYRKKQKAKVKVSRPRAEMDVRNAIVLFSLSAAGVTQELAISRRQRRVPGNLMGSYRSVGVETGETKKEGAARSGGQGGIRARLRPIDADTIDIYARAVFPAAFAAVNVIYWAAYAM
Sequence of GABA-A receptor alpha-4/beta-3/delta (P28472 whole entry): as the sequence (P28472 whole entry) above
Sequence of GABA-A receptor alpha-4/beta-3/delta (P48169 whole entry): as the sequence (P48169 whole entry) above
Sequence of GABA-A receptor alpha-4/beta-3/delta (Q06278 whole entry, further chain): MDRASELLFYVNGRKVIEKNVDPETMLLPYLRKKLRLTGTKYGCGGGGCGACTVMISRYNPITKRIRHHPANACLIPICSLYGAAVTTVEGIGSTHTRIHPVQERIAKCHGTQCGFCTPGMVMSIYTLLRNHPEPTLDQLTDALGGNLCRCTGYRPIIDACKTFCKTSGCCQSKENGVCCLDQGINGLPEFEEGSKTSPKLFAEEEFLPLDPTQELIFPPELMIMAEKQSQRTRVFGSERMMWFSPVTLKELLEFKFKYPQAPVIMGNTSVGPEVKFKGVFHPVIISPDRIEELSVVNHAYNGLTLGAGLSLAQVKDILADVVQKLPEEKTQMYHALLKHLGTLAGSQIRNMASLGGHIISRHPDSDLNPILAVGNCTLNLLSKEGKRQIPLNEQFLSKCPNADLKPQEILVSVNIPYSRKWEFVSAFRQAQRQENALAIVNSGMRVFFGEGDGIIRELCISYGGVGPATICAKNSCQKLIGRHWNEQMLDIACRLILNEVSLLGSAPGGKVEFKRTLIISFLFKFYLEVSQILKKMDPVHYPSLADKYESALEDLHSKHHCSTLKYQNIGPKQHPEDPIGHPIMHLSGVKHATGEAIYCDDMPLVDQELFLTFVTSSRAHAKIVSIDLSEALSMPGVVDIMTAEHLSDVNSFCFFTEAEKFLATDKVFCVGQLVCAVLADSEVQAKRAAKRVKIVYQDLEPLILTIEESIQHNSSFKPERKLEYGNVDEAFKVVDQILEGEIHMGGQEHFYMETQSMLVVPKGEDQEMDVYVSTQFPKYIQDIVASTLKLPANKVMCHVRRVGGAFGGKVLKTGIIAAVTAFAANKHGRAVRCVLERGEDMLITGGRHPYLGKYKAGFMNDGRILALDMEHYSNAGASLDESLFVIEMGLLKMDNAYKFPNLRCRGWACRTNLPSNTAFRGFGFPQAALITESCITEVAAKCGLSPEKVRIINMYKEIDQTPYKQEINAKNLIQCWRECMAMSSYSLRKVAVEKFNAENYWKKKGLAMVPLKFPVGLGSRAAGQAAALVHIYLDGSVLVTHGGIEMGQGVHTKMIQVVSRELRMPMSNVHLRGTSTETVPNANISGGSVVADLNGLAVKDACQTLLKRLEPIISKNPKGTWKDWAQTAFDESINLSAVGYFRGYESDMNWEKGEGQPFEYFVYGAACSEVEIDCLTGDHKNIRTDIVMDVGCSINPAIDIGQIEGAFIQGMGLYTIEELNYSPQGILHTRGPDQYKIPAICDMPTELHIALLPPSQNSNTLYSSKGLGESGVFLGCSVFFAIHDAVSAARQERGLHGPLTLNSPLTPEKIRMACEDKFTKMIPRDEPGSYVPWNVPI

Row | Compound | IC50 [1] [nM] | EC50 [2] [nM] | Emax [3] [%] | EC50 [4] [nM] | Emax [5] [%] | solubility thermodynamic at 1 h, 10 µM [6] [µM] | CLhep predicted at 10 µM [7] [mL/min/kg] | CLhep predicted at 10 µM [8] [mL/min/kg] | CLhep predicted at 10 µM [9] [mL/min/kg] | clearance [10] [mL/min/kg] | bioavailability [11] [%] | bioavailability [12] [%] | Kp at 0.5 h [13] | Kp at 0.5 h [14] | logD at 20 µM [15] | clearance [16] [mL/min/kg]
1 | C[C@@]1(O)CC[C@H]2[C@H](CC[C@@H]3[C@@H]2CC[C@]2(C)[C@@H](C(=O)Cn4nccn4)CC[C@@H]32)C1 | 11 | 125 | 663 | 240 | 579 | 7.3 (≈ 2.81 µg/mL) | 3.33 | 45 | 66.7 | 43.3 | 25 | 17 | 1.8 | 1 | – | –
2 | Cc1cnn(CC(=O)[C@H]2CC[C@H]3[C@@H]4CC[C@@H]5C[C@](C)(O)CC[C@@H]5[C@H]4CC[C@]23C)c1 | 49 | 291 | 427 | 1360 | 841 | 7 (≈ 2.79 µg/mL) | 8.33 | 50 | 85 | 60 | 9.5 | 6 | 2 | – | 5 | 63.3
3 | Cc1cnn(CC(=O)[C@H]2CC[C@H]3[C@@H]4CC[C@@H]5C[C@](C)(O)CC[C@@H]5[C@H]4CC[C@]23C)n1 | 21 | 1640 | 532 | 192 | 614 | 7 (≈ 2.8 µg/mL) | 5 | 53.3 | 81.7 | 61.7 | 6 | 39 | – | 1 | – | 50
4 | C[C@@]1(O)CC[C@H]2[C@H](CC[C@@H]3[C@@H]2CC[C@]2(C)[C@@H](C(=O)Cn4ccc(C#N)n4)CC[C@@H]32)C1 | 13 | 225 | 725 | 110 | 330 | 1.9 (≈ 0.778 µg/mL) | 5 | 41.7 | 83.3 | 43.3 | 56 | 26 | 1.9 | 1.4 | 4.6 | 25
5 | C[C@@]1(O)CC[C@H]2[C@H](CC[C@@H]3[C@@H]2CC[C@]2(C)[C@@H](C(=O)Cn4cccn4)CC[C@@H]32)C1 | 30 | 979 | 474 | 1240 | 583 | 8 (≈ 3.08 µg/mL) | 5 | 41.7 | 81.7 | 75 | 19 | 5 | 1.1 | – | 4.6 | 28.3
6 | CC(=O)[C@H]1CC[C@H]2[C@@H]3CC[C@H]4C[C@H](O)CC[C@]4(C)[C@H]3CC[C@]12C [BREXANOLONE] | 22 | 237 | 510 | 75.5 | 430 | 3.3 (≈ 1.05 µg/mL) | – | 55 | 66.7 | 200 | 2 | – | 1.8 | 1.9 | – | –

— ChEMBL document CHEMBL4038335, “Neuroactive Steroids. 2. 3α-Hydroxy-3β-methyl-21-(4-cyano-1H-pyrazol-1'-yl)-19-nor-5β-pregnan-20-one (SAGE-217): A Clinical Next Generation Neuroactive Steroid Positive Allosteric Modulator of the (γ-Aminobutyric Acid)A Receptor” (J Med Chem, 2017)
